# Assay results reported in patent US8815946B2, “Inhibition of proliferation and fibrotic response of activated corneal stromal cells” (University of Pittsburgh—of the Commonwealth System of …, priority 2008, dated 2014).
# Tests used:
# [1] = tested on: normal human corneal fibroblasts; assay: Cell proliferation analysis, human corneal stromal cells; type: cell-based
# Protocol: FIGS. 1A-1C. Effect of ethyl pyruvate on the growth of human corneal stromal cells. Corneal stromal cells in P2 growing in DMEM/F12 with 10% FBS were subcultured into desired number of 35 mm tissue culture dishes. After 24 hrs of incubation, the media were replaced with DMEM/F12 medium containing 1% FBS with or without EP (FIG. 1A) or with the same medium containing TGF-β1 or b-FGF/HS with or without EP (FIG. 1B and FIG. 1C, respectively). The cells in several marked regions were counted every 24 hours as described in Methods. The data points are average (±SE) from two separate experiments.
# To study the effect of EP on cell proliferation, normal human corneal fibroblasts growing in DMEM/F12 with 10% FBS were subcultured into the desired number of 35 mm tissue culture dishes at a density of 5×10^4 cells/per dish. […] Several regions were marked on the bottom of the dishes and cells in marked regions were counted at 24 hr intervals for five days. Phase contrast digital micrographs of the cells in the marked fields were captured and the cells in the images were counted using MetaMorph® imaging software. The rate of proliferation was evaluated by determining the number of cells at specific time points after treatment/number of cells at the start of the treatment. […]
# [2] = tested on: GR-1 neutrophils; assay: Mouse corneal wound model, FACS with neutrophil marker GR-1; type: in vivo, Mus musculus strain C57; details: day 2 post-wounding
# Text: A mouse model of corneal wound healing and inflammation induced by lipopolysacharide (LPS) was used to test the effect of EP. Khatari et al., Invest. Opthalmol. Vis. Sci. (2002) 43:2278-2284. Briefly, mice (Mus musculus strain C57, age approx. 2 months) were obtained from Charles River Laboratories in accordance with institutional protocols and divided into the following treatment groups (with 3 samples in each group):
# Prior to wounding, all mice were anesthetized with an intraperitoneal injection of 50 mg/kg ketamine with 5 mg/kg xylazine. Topical anesthesia was further achieved with an additional 1 drop of 0.5% proparacaine per eye. Once the animal was sufficiently anesthetized, a corneal wound was constructed in each eye using a sterile 26-gauge needle that penetrated the epithelium and the superficial layers of the stroma. This linear scratch extended from the medial to lateral canthus (FIG. 12). 10 μg of the bacterial super-antigen LPS (Pseudomonas aeruginosa lipopolysaccharide, Sigma) was applied to the wound using a 10 μl pipette and allowed to penetrate the cornea for 5 minutes. Addition of bacterial endotoxin ensured a robust inflammatory response.
# The wound was then washed with phosphate buffered saline (PBS/non-pyrogenic dH2O). […] The delivery and concentration of EP was determined according to Devamanoharan et al. (1999); 200(1-2):103-09. […]
compound,measurement,setting,value
CCOC(=O)C(C)=O [ethyl pyruvate],cell number,"[1]; 1% FBS with or without TGF-β1 or b-FGF/HS, 10 mM and 15 mM EP, counted every 24 hours",no significant increases in cell number
same,proliferation of human corneal fibroblasts and myofibroblasts,[1]; 10-20 mM in the medium,inhibited proliferation
same,neutrophils (GR-1) by FACS,[2],61.00±42.53
